# Molecular target: T1, NAD(+) hydrolase SARM1 [28-724] (UniProt Q6SZW1)
# T1 construct: 28-724
# T1 sequence (Q6SZW1 whole entry): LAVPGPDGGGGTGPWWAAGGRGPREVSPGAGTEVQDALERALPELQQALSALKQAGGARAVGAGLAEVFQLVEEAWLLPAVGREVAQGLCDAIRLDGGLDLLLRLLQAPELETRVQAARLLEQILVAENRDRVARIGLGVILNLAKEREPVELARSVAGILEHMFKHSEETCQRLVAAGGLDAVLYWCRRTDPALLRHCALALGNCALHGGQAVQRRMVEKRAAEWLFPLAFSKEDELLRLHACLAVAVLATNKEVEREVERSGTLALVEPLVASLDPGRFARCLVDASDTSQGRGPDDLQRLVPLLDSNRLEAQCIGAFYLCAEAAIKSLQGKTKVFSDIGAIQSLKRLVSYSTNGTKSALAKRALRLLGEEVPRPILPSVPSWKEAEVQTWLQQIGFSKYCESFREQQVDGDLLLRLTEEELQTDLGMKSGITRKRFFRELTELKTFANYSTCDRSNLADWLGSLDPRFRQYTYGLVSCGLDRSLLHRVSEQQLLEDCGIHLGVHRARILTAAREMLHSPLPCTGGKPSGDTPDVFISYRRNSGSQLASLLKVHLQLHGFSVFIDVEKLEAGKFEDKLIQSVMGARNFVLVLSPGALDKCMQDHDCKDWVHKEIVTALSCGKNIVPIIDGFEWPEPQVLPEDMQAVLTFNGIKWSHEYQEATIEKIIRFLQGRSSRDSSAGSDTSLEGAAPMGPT
# Test: SARM1 Inhibitory Activity
# Description: Assay reagents were prepared in 25mM HEPES pH 7.2, 50mM NaCl, 1mM EDTA and 0.0025% Tween20. […] The peak area of NAD and linear ADPR were measured by a RapidFire High Throughput Mass Spectrometry System (Agilent Technologies, Santa Clara, CA) using an API5000 triple quadrupole mass spectrometer (AB Sciex Framingham, MA). The ratio of linear ADPR to NAD peak area was then plotted against compound concentration to obtain an IC50 as fitted via non-linear regression.
row,Structure (SMILES),IC50 [nM]
1,"O=C(c1cc(-c2ccncc2)n[nH]1)N1C[C@@H](O)[C@H](c2ccc(Cl)cc2)C1 [WO2025045746, Example 13]",624
2,"O=C(c1cc(-c2ccnnc2)n[nH]1)N1CCC(c2cc3ccccc3s2)C1 (configuration not stated) [WO2025045746, Example 54]",8130
3,"CC1(C)CC(c2ccccc2)CN1C(=O)c1cc(-c2ccncc2)n[nH]1 (configuration not stated) [WO2025045746, Example 11]",7390
4,"O=C(c1cc(-c2ccnnc2)n[nH]1)N1CCC(c2ccc(Br)s2)C1 (configuration not stated) [WO2025045746, Example 44]",114
5,"O=C(c1cc(-c2ccnnc2)n[nH]1)N1CC[C@@H](c2cc(Cl)cs2)C1 [WO2025045746, Example 69]",749
6,"O=C(c1cc(-c2ccncc2)n[nH]1)N1CCC(c2ccc(F)cc2Cl)C1 (configuration not stated) [WO2025045746, Example 8]",458
7,"O=C(c1cc(-c2ccnnc2)n[nH]1)N1CCC(c2cccc(OC(F)(F)F)c2)C1 (configuration not stated) [WO2025045746, Example 18]",6180
8,"O=C(c1cc(-c2ccnnc2)n[nH]1)N1CCC(F)(c2ccc(F)c(F)c2)C1 (configuration not stated) [WO2025045746, Example 23]",2270
9,"CC1CN(C(=O)c2cc(-c3ccnnc3)n[nH]2)CC1c1ccc(Br)cc1 (configuration not stated) [WO2025045746, Example 46]",188
10,"O=C(c1cc(-c2ccnnc2)n[nH]1)N1C[C@@H](O)[C@H](c2ccc(Cl)cc2)C1 [WO2025045746, Example 30]",172
11,"O=C(c1cc(-c2ccncc2)n[nH]1)N1CCC(c2ccc(Cl)s2)C1 (configuration not stated) [WO2025045746, Example 9]",194
12,"O=C(c1cc(-c2ccncc2)n[nH]1)N1CC(c2ccc(Cl)cc2)C2CCCCC21 (configuration not stated) [WO2025045746, Example 32]",521
13,"Cc1ccc(C2CCN(C(=O)c3cc(-c4ccnnc4)n[nH]3)C2)cc1 (configuration not stated) [WO2025045746, Example 14]",2910
14,"O=C(c1cc(-c2ccncc2F)n[nH]1)N1CCC(c2ccc(Cl)cc2)C1 (configuration not stated) [WO2025045746, Example 36]",1220
15,"C[C@@H]1C[C@H](c2ccc(F)cc2)CN1C(=O)c1cc(-c2ccnnc2)n[nH]1 [WO2025045746, Example 25]",9540

# The next lines start with the values.
row,IC50 [nM],Structure (SMILES)
1,51,"C[C@@H]1CN(C(=O)c2cc(-c3ccnnc3)n[nH]2)C[C@H]1c1ccc(Cl)cc1 [WO2025045746, Example 65]"
2,698,"COc1c(-c2ccnnc2)n[nH]c1C(=O)N1CCC(c2ccc(Cl)cc2)C1 (configuration not stated) [WO2025045746, Example 35]"
3,217,"C[C@H](O)[C@@H]1CN(C(=O)c2cc(-c3ccnnc3)n[nH]2)C[C@H]1c1ccc(Cl)cc1 [WO2025045746, Example 67]"
4,3020,"O=C(c1[nH]nc(-c2ccnnc2)c1C1CC1)N1CCC(c2ccc(Cl)cc2)C1 (configuration not stated) [WO2025045746, Example 66]"
5,2210,"Cc1cnccc1-c1cc(C(=O)N2CC[C@H](c3ccc(Cl)cc3)C2)[nH]n1 [WO2025045746, Example 57]"
6,2120,"COc1cc(C2CCN(C(=O)c3cc(-c4ccnnc4)n[nH]3)C2)cc(F)c1F (configuration not stated) [WO2025045746, Example 33]"
7,340,"O=C(c1[nH]nc(-c2ccnnc2)c1Br)N1CC[C@H](c2ccc(Cl)cc2)C1 [WO2025045746, Example 58]"

# From BindingDB's records for patent WO2025045746 (695 Avenue de la Résistance, 2025)
